# According to PMC10066365, “Nemacol is a small molecule inhibitor of C. elegans vesicular acetylcholine transporter with anthelmintic potential” (Nature Communications, 2023):
# Where “and” joins values, the source holds several entries; their conditions need not be identical. Identical values can stand only once. Like-named read-outs stand apart in the source and are kept apart here.
# Experiments:
# [1] = system: Dirofilaria immitis L3/L4; experiment: Dirofilaria immitis L3/L4 motility assay (DiroImager, 72 h); conditions: Dirofilaria immitis L4
# C. elegans = C. elegans motor phenotype scoring on solid media (Punc/jerky-unc, coiled, paralyzed), wild-type young adults; assay type: in vivo, Caenorhabditis elegans; conditions: for atypical locomotion (number of animals) / coiled (number of animals) / no phene (number of animals) / paralyzed (number of animals): young adults, 20 animals per trial, single technical replicate; for EC50: Caenorhabditis elegans, any motor phenotype after 1 h on solid media, ± 95% CI, read-out: C. elegans - motor disruption EC50
# [2] = system: Dirofilaria immitis microfilariae; experiment: Dirofilaria immitis microfilariae immobility assay (DiroImager, 72 h); conditions: Dirofilaria immitis microfilariae
# How it was run: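 Motility read after 72 h drug exposure with an image-based high-throughput plate imager, 1% DMSO medium serving as negative control. Missouri-isolate microfilariae, roughly 250 per well, freshly purified and cultured in supplemented RPMI 1640.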
# Pristionchus pacificus = Pristionchus pacificus motor disruption dose-response on solid media, 1 h; conditions: for EC50: Pristionchus pacificus, 1 h, read-out: P. pacificus motor disruption EC50; for mean % any phene: any phenotype (coiled, jerky-Unc or paralyzed) at one hour; for mean % any phene / mean % any phene (coiled, jerky-Unc or paralyzed): mean of three biological replicates; for rep 1 atypical locomotion / rep 1 coiled / rep 1 no phene / rep 1 paralyzed / rep 2 atypical locomotion / rep 2 coiled / rep 2 no phene / rep 2 paralyzed / rep 3 atypical locomotion / rep 3 coiled / rep 3 no phene / rep 3 paralyzed: count of 20 animals per trial, one hour; for mean % any phene (coiled, jerky-Unc or paralyzed): Pristionchus pacificus young adults
# rat VAChT = molecular target: T1, rat VAChT (Rattus norvegicus, UniProt Q62666); experiment: [3H]Vesamicol competitive radioligand binding, PC12 cells expressing ratVAChT
# T1 construct: expressed in transfected cells; host or cells: rat PC12 (PC12 A123.7) cells, stably transfected; shared by Dr. Ali Roghani (Texas Tech University)
# T1 sequence (Q62666 1-530): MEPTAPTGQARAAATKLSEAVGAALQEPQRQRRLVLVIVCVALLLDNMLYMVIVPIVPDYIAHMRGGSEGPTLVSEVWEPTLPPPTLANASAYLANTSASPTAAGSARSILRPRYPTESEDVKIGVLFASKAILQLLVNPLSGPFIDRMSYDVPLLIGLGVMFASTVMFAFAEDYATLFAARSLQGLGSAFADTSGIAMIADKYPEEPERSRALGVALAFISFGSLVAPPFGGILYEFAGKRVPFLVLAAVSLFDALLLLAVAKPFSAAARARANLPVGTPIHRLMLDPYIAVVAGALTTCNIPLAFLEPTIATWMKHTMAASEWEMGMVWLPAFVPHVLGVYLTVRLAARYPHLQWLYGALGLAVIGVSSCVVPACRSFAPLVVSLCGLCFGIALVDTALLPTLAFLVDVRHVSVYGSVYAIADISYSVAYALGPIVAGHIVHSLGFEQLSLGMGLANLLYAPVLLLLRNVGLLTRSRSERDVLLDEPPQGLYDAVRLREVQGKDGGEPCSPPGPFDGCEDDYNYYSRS
# [3] = [3H]Vesamicol binding, PC12, experiment 1, read-out: expt 1 Ki (M) vs. rat VAChT (PC12)
# [4] = [3H]Vesamicol binding, PC12, experiment 2, read-out: expt 2 Ki (M) vs. rat VAChT (PC12)
# [5] = [3H]Vesamicol binding, rat VAChT (PC12), mean of 2-3 experiments, read-out: mean Ki
smiles,measurement,setting,value
c1ccc(N2CCN(CC3CCCC3)CC2)cc1 [Nemacol-62],"% effect (motility), DIROIM L4",[1]; 10 µM,5%
same,"% effect (motility), DIROIM L4",[1]; 50 µM,11%
same,atypical locomotion (number of animals),"C. elegans; 3.75uM, one hour",0 and 2
same,coiled (number of animals),"C. elegans; 3.75uM, one hour",0 and 1
same,no phene (number of animals),"C. elegans; 3.75uM, one hour",20 and 17 and 18
same,paralyzed (number of animals),"C. elegans; 3.75uM, one hour",0
same,"any phene: mean % fraction of young adults exhibiting any phenotype (coiled, jerky-Unc or paralyzed)","C. elegans; 3.75uM, one hour, mean of three biological replicates",4.167%
same,atypical locomotion (number of animals),"C. elegans; 15uM, one hour",13 and 10 and 6 and 17
same,coiled (number of animals),"C. elegans; 15uM, one hour",0 and 1 and 4 and 3
same,no phene (number of animals),"C. elegans; 15uM, one hour",5 and 8 and 13 and 10 and 0
same,paralyzed (number of animals),"C. elegans; 15uM, one hour",2 and 0 and 4
same,atypical locomotion (number of animals),"C. elegans; 60uM, one hour",0 and 4 and 2 and 1
same,coiled (number of animals),"C. elegans; 60uM, one hour",12 and 8 and 15 and 17 and 7 and 5
same,no phene (number of animals),"C. elegans; 60uM, one hour",0
same,paralyzed (number of animals),"C. elegans; 60uM, one hour",8 and 3 and 2 and 9 and 14
same,EC50,C. elegans,11200 ± 4400 nM
same,"% effect (motility), DIROIM MF",[2]; 0.016 µM,0%
same,"% effect (motility), DIROIM MF",[2]; 0.08 µM,0%
same,"% effect (motility), DIROIM MF",[2]; 0.4 µM,0%
same,"% effect (motility), DIROIM MF",[2]; 2 µM,0%
same,"% effect (motility), DIROIM MF",[2]; 10 µM,0%
same,EC50,Pristionchus pacificus,35200 ± 7500 nM
same,mean % any phene,Pristionchus pacificus; conc 3.75,0%
same,rep 1 atypical locomotion,Pristionchus pacificus; conc 3.75,0
same,rep 1 coiled,Pristionchus pacificus; conc 3.75,0
same,rep 1 no phene,Pristionchus pacificus; conc 3.75,20
same,rep 1 paralyzed,Pristionchus pacificus; conc 3.75,0
same,rep 2 atypical locomotion,Pristionchus pacificus; conc 3.75,0
same,rep 2 coiled,Pristionchus pacificus; conc 3.75,0
same,rep 2 no phene,Pristionchus pacificus; conc 3.75,20
same,rep 2 paralyzed,Pristionchus pacificus; conc 3.75,0
same,rep 3 atypical locomotion,Pristionchus pacificus; conc 3.75,0
same,rep 3 coiled,Pristionchus pacificus; conc 3.75,0
same,rep 3 no phene,Pristionchus pacificus; conc 3.75,20
same,rep 3 paralyzed,Pristionchus pacificus; conc 3.75,0
same,mean % any phene,Pristionchus pacificus; conc 15,3.333%
same,rep 1 coiled,Pristionchus pacificus; conc 15,0
same,rep 1 no phene,Pristionchus pacificus; conc 15,20 and 19
same,rep 1 paralyzed,Pristionchus pacificus; conc 15,0
same,rep 2 atypical locomotion,Pristionchus pacificus; conc 15,2 and 1
same,rep 2 coiled,Pristionchus pacificus; conc 15,0
same,rep 2 no phene,Pristionchus pacificus; conc 15,18 and 19
same,rep 2 paralyzed,Pristionchus pacificus; conc 15,0
same,rep 3 atypical locomotion,Pristionchus pacificus; conc 15,0
same,rep 3 coiled,Pristionchus pacificus; conc 15,0
same,rep 3 no phene,Pristionchus pacificus; conc 15,20
same,rep 3 paralyzed,Pristionchus pacificus; conc 15,0
same,mean % any phene,Pristionchus pacificus; conc 60,89.1667%
same,rep 1 atypical locomotion,Pristionchus pacificus; conc 60,5 and 6
same,rep 1 paralyzed,Pristionchus pacificus; conc 60,11 and 9
same,rep 2 atypical locomotion,Pristionchus pacificus; conc 60,14 and 15
same,rep 2 coiled,Pristionchus pacificus; conc 60,2 and 3
same,rep 2 no phene,Pristionchus pacificus; conc 60,0
same,rep 2 paralyzed,Pristionchus pacificus; conc 60,4 and 2
same,rep 3 atypical locomotion,Pristionchus pacificus; conc 60,15 and 13
same,rep 3 no phene,Pristionchus pacificus; conc 60,5 and 3
same,Ki,rat VAChT; [3],2.34e-06 M
same,Ki,rat VAChT; [4],3.34e-06 M
same,Ki,rat VAChT; [5],2.84e-06 M
same,Ki,"rat VAChT; [3H]Vesamicol displacement, mean, read-out: ratVAChT Ki",2.84e-06 M
Cc1ccc(N2CCN(C3CCC(C)C3)CC2)cc1 (stereo not shown) [Nemacol-41],"% effect (motility), DIROIM L4",[1]; 2 µM,5%
same,"% effect (motility), DIROIM L4",[1]; 10 µM,5%
same,"% effect (motility), DIROIM L4",[1]; 50 µM,20%
same,"any phene (mean % fraction of young adults exhibiting any phenotype: coiled, jerky-Unc or paralyzed)","C. elegans; 3.75uM, one hour, mean of three biological replicates, third c14 line of each analog",58.3333%
same,"any phene (mean % fraction of young adults exhibiting any phenotype: coiled, jerky-Unc or paralyzed)","C. elegans; 15uM, one hour, mean of three biological replicates, second c14 line of each analog",98.3333%
same,"any phene (mean % fraction of young adults exhibiting any phenotype: coiled, jerky-Unc or paralyzed)","C. elegans; 60uM, one hour, mean of three biological replicates, first c14 line of each analog",100%
same,EC50,C. elegans,3300 ± 1400 nM
same,"% effect (motility), DIROIM MF",[2]; 0.016 µM,0%
same,"% effect (motility), DIROIM MF",[2]; 0.08 µM,0%
same,"% effect (motility), DIROIM MF",[2]; 0.4 µM,0%
same,"% effect (motility), DIROIM MF",[2]; 2 µM,0%
same,"% effect (motility), DIROIM MF",[2]; 10 µM,0%
same,"mean % any phene (coiled, jerky-Unc or paralyzed)","Pristionchus pacificus; conc 3.75, observed at one hour",9.167%
same,"mean % any phene (coiled, jerky-Unc or paralyzed)","Pristionchus pacificus; conc 15, observed at one hour",67.5%
same,"mean % any phene (coiled, jerky-Unc or paralyzed)","Pristionchus pacificus; conc 60, observed at one hour",100%
same,EC50,Pristionchus pacificus,10700 ± 1200 nM
same,Ki,rat VAChT; [3],4.82e-07 M
same,Ki,rat VAChT; [4],3.76e-07 M
same,Ki,rat VAChT; [5],4.29e-07 M
